{"source": "patent US20200230205A1", "about": "“COMPOSITIONS AND METHODS FOR TREATING MYELIN DISORDERS” (CASE WESTERN RESERVE UNIVERSITY, priority 2017, published 2020)", "key": {"[1]": {"system": "aggrecan (CS56)", "assay": "CSPG degradation by OPC conditioned media (CS56 spot quantification and western blot of aggrecan)", "assay_type": "cell-based, mouse", "details": "for aggrecan GAG digestion (CS56 immunoblot): Exo1 10 μg/mL, GM6001 25 μM or OA-Hy 100 nM with 2.5 μM ISP", "description": "(§1) CSPG gradients were prepared as described previously (Tom, V. J., et al. Studies on the Development and Behavior of the Dystrophic Growth Cone, the Hallmark of Regeneration Failure, in an In vitro Model of the Glial Scar and after Spinal Cord Injury.). 24-well glass coverslip were coated with poly-L-lysine and nitrocellulose, and a mixture of 700 μg/mL aggrecan (A1960 Sigma) and 10 μg/mL laminin (11243217001 Sigma) spotted on the coated coverslip. After drying, coated coverslips were then incubated with laminin at 37° C. for 3h. Purified OPCs were plated at a density of 10,000/coverslip and cultured in DMEM/F12 medium containing with N2, PDGF (20 ng/ml), FGF (20 ng/ml), NT-3 (5 ng/ml), CNTF (O1 ng/ml), Glutamine (200 mM). Coverslips were stained with CS-56 (C8035, Sigma, 1:500) and O4 antibodies (Hybridoma Core Cleveland Clinic, 1:10). O4-positive cells crossing the aggrecan border were counted for each spot. For CSPG gradient quantification, 1×10^6 OPCs were plated per well on PLL, 1 μg/mL laminin, and 2 μg/mL aggrecan coated 6-well plates. OPCs treated with vehicle, 2.5 μM ISP, or 2.5 μM SISP for 2 days at 37° C. CM was harvested and incubated with freshly made spots. Spots were incubated with CM for 2 days at 37° C. then stained with CS-56 and laminin (L9393, Sigma, 1:1000) antibodies and consistently imaged. Using ImageJ software (NIH), pixel intensities of the CS-56 or laminin spot rims were quantified using the same ROI. For cultured spinal cord explant, the spinal cords of cervical and thoracic of P1 mouse pups were chopped into 1-2 mm tissue pieces and transferred to the coverslip. Explants were cultured in DMEM/F12 medium with 15% FBS (Hyclone), O1 ng/ml PDGF (Sigma) and N2 supplement (Invitrogen). For ISP treatment, 2.5 uM ISP was added to the media at the time of plating. 25 μM GM6001 (2983, Tocris), 100 nM MMP-2 inhibitor (444244, Calbiochem), and/or 2.5 μM ISP or SISP was used.\nCM was harvested from 1×10^6 OPCs incubated on PLL, 1 μg/mL laminin, and 2 μg/mL aggrecan coated 6-well plates. OPCs were treated with vehicle, 2.5 μM ISP, or 2.5 μM SISP in conjunction with 10 μg/mL Exo1 (ab120292, Abcam), or 25 μM GM6001 (364205, Calbiochem) for 2 days at 37° C. […] CM of each cell-strained group was incubated with 20 μg/mL aggrecan and/or 10 μg/mL laminin for 2 hours in lmL Eppendorf tubes at 37° C. As a positive control, OPC media was incubated with aggrecan and incubated in the same fashion. Western blots were then performed as described below with incubation against CS-56 and/or laminin antibodies."}, "[2]": {"system": "oligodendrocyte progenitor cells (OPCs)", "assay": "CSPG gradient crossing (spot) assay, OPC migration", "assay_type": "cell-based, mouse", "details": "25 μM GM6001 or 100 nM OA-Hy, even in the presence of ISP", "description": "as §1"}, "[3]": {"system": "organotypic cerebellar slice cultures", "assay": "LPC-induced demyelination in mouse cerebellar slice cultures", "assay_type": "cell-based", "details": "25 μM GM6001 or 100 nM OA-Hy in conjunction with 2.5 μM ISP, 9 days", "from_the_text": "We carried out the cerebellar slice culture method as described previously (Zhang, H., et al. Central nervous system remyelination in culture—A tool for multiple sclerosis research. Experimental Neurology 230, 138-148 (2011)). Briefly, 300 μm-thick cerebellar slices were cut from P10-12 mouse cerebellum using a Leica vibrating microtome (Leica, VT1000S) and cultured in medium containing 50% basal medium eagle medium, 25% Heat-inactivated horse serum, 25% Hank's solution, 2.5% glucose, 1% glutamine and penicillin-streptomycin. After 4 days in vitro (DIV), 0.5 mg/ml LPC were added for 17-18h to induce demyelination. Slices were then incubated with 2.5 μM ISP for 8 days. For GM6001 experiments, 25 μM GM6001 (Tocris) and/or 2.5 μM ISP or SISP was incubated for 9 days. Remyelination was examined by semi-quantitative Western blot of MBP and immunofluorescence stain of MBP and NeuF200.\nSlices were fixed with 4% PFA, delipidated, and washed three times in PBS, blocked in PBS containing 0.1% Triton X-100 and 5% normal goat serum and incubated with anti-MBP (SMI-99P, Covance, 1:300), and anti-NeuF200 (N4142, Sigma, 1:250) antibodies overnight at 4° C. The slices were then washed in PBS and incubated in Alexa Fluor-conjugated secondary antibodies (1:500, invitrogen) for 2h. Slices were mounted in Vectashield mounting medium with DAPI (Vector Laboratories) and analyzed using Leica DFC500 fluorescence microscope."}, "[4]": {"system": "oligodendrocyte progenitor cells (OPCs)", "assay": "Ki-67 proliferation and TUNEL apoptosis of OPCs on aggrecan/laminin", "assay_type": "cell-based, mouse", "details": "2.5 μM peptide, 2 div, laminin 1 and aggrecan 2 μg/mL, vs control", "description": "To assess proliferation, OPCs were plated on 24-well coverslips that were precoated with PLL, 1 μg/mL laminin, and 2 μg/mL aggrecan. OPCs were treated with vehicle, 2.5 μM ISP or SISP immediately upon plating for 2 days at 37° C. Coverslips were fixed and stained using the same method described in the immunocytochemistry section with Ki-67 (550609, BD Pharmingen, 1:500) and O4 (1:10). Coverslips were imaged and counted. To assess apoptosis, OPCs were cultured in the same fashion and incubated with vehicle or 1 μg/mL LPC for 2 hours at 2 days following vehicle, 2.5 μM ISP or SISP incubation. Coverslips were then fixed with PFA and methanol then stained using APO-BrdU TUNEL assay kit (A23210, ThermoFisher) and guidelines with an O/N incubation of the primary antibody at RT. Coverslips were additionally costained with DAPI (D9542, Sigma, 1:10,000) then imaged and counted."}, "[5]": {"system": "MMP-10", "assay": "MMP-10 western blot of OPC conditioned media", "assay_type": "cell-based, mouse", "details": "OPC CM, 2.5 μM peptide, same as vehicle", "description": "To assess MMP-2 or 10 in OPC CM or lysates, OPCs were incubated on precoated PLL, aggrecan, and laminin as described above. OPCs were treated with vehicle, 2.5 μM ISP or SISP for 2 days at 37° C. CM was then harvested and concentrated using Milipore Ultracel YM-C centrifugal filter units at max speed (Eppendorf Centrifuge […]) for 30 minutes at 4° C. […] of concentrated CM was loaded into each lane. OPC lysates were assessed using western blot techniques described below with […] protein loaded from each group. Tissue samples or cerebellar slices or purified OPC cells were homogenized with RIPA lysis buffer and protein concentration was determined by Pierce BCA protein assay kit according to the manufacture instruction (Thermo Fisher). Then, equal amounts of protein were loaded to 15% SDS-PAGE gels, and electrophoretically transferred to PVDF membranes (Millipore). The membranes were blocked in 0.1% TPBS buffer with 5% non-fat milk for 1h at room temperature and probed with indicated primary antibodies overnight at 4° C. and followed by secondary antibody conjugated to horseradish peroxidase (HRP). […] Enhanced chemiluminescence was performed with a West Pico Kit (Thermo Fisher) and detected by FluorChem E system (ProteinSimple, USA). The density of bands was quantified using ImageJ software (NIH)."}}, "data": [{"molecule": "COC(=O)c1ccccc1NC(=O)c1ccc(F)cc1", "note": "[Exo1]", "values": [{"measurement": "aggrecan GAG digestion (CS56 immunoblot)", "setting": "[1]", "result": "partially rescued aggrecan GAG digestion"}]}, {"molecule": "CNC(=O)[C@H](Cc1c[nH]c2ccccc12)NC(=O)[C@@H](CC(=O)NO)CC(C)C", "note": "[GM6001]", "values": [{"measurement": "OPC entry into the CSPG-rich area", "setting": "[2]", "result": "effectively halted OPC entry"}, {"measurement": "colocalization of MBP and neurofilament+ axons", "setting": "[3]", "result": "decreased"}, {"measurement": "CS56 spot degradation", "setting": "[1]; 25 μM GM6001 or 100 nM OA-Hy with 2.5 μM ISP", "result": "additionally rescued CS56 spot degradation"}, {"measurement": "aggrecan GAG digestion (CS56 immunoblot)", "setting": "[1]", "result": "partially rescued"}]}, {"molecule": "GRKKRRQRRRCIREDDSLMLYALAQEKKESNMHES [SISP, scrambled ISP control peptide, reference compound]", "values": [{"measurement": "OPC proliferation (Ki67)", "setting": "[4]", "result": "not significantly changed"}, {"measurement": "MMP-10 secretion, western blot", "setting": "[5]", "result": "equally low amounts"}]}]}
